Source: publication PMC6591174, “The beneficial androgenic action of steroidal aromatase inactivators in estrogen-dependent breast cancer after failure of nonsteroidal drugs” (Cell Death & Disease, 2019)

Experiments:
MCF-7 cells = test: Cell cycle analysis by flow cytometry; format: cell-based, human; conditions: 100 nM, 72 h
Method: Fig. 2 Proliferative response of cancer cells to indicated compounds. a–c the effect of concentrations of different compounds on the growth of the cells. Cells were cultured in 10% PRF-CT with E2 1 nM (MCF-7 and ZR-75-1) or without E2 (MDA-MB-231) for 3 days before plating. Cells were seeded in 96-well plates and 24 h later they were exposed to different concentrations (1 nM– 10 μM) of compounds for 6 days (MCF-7 and ZR-75-1) or 3 days (MDA-MB-231). Cell growth was measured as described in the “Materials and methods”. The proliferation of cells is expressed as the ratio of the cells compared with the control wells (untreated cells). d, e Influence of different compounds on the cell cycle of MCF-7 cells. MCF-7 cells were cultured in 10% PRF-CT with E2 (1 nM) for 3 days before plating. Cells were seeded in six-well plates and, the next day, starved in PRF for 24 h. Cells were exposed to different compounds at a concentration of 100 nM for 72 h, and then subjected to cell-cycle analysis as described in “Materials and methods”. f MCF-7 cells on poly-L-lysine-coated glass coverslips were exposed to compounds (100 nM) in 10% PRF-CT with 1 nM E2 for 72 h. Control cells were treated with vehicle. DAPI stains DNA, and the secondary anti-mouse antibody to detect the antibody bound to Ki-67 is labeled with the cyanine dye Cy3. The cells were stained with DAPI (blue). Immunofluorescence staining of Ki-67 of cells was observed using fluorescence microscope. Red: Ki-67; blue: nucleus.Typical image is shown. Scale bars: 10 μm. Data represent a mean ± SEM of three independent experiments, each in triplicate; bars, SEM. *P ≤ 0.05 vs. control
Cell cycle kinetics were studied by flow cytometry. MCF-7 cells were cultured in 10% PRF–CT with 1 nM E2 for 3 days prior to seeding on six-well plates (10^5 cells/well). Following seeding of cells, cells were serum starved for 24 h, and then treated with media containing 100 nM of the test compounds for 72 h. Cell-cycle analysis was performed as described by Ando[20].

[1] = tested on: CCND1 promoter in MCF-7 cells; test: ChIP-qPCR on the CCND1 promoter; format: cell-based, human; conditions: 10^-7 M, 2 h
Method: Fig. 7 The effect of activated AR on CCND1 expression by changing histone modifications of its promoter. The experimental protocol was as described in “Materials and methods”. a and b The expression of the cyclin D1 protein. Blots were also probed for tubulin (bottom) to verify equal amounts of protein loaded in each lane. The densitometric evaluation is calculated by ImageJ. c The abundance of cyclin D1 mRNA has been detected by real-time reverse transcription-PCR, as described in “Materials and methods”. d–h MCF-7 cells were grown in 10 cm dishes. Confluent cultures (80%) were shifted to PRF for 24 h and then treated with indicated compounds at a concentration of 10^−7 M or left untreated in PRF-CT for 2 h. ChIPs were carried out on serum starved MCF-7 cells as described in “Materials and methods”. Cells were lysed and proteins were precipitated using antibodies against AR (d), H3K4me3 (e), H3K9me3 (f), H3K9ac (g), H3K27ac (h) or rabbit IgG (2 μg/sample each). In control samples (Ig), normal rabbit IgG was used instead of the primary antibodies as control of antibody specificity. Inputs DNA were amplified as loading controls. Five regions of CCND1 promoter were examined by quantitative PCR analysis. The region containing the ARE site was detected by PCR with specific primers (p1-ARE) for antibodies of AR and H3K4me3. Specific primers P4 and p5 were used to investigate the changes in methylation or acetylation of H3K9.
MCF-7 cells were grown in 10 cm dishes. Confluent cultures (80%) were shifted to PRF for 24 h and then treated with various drugs at a concentration of 10^–7 M (as shown in Fig. 8) or left untreated in 5% PRF-CT for 2 h. Following treatment, ChIP assay was performed as described by Morelli et al. and using a simple Chip plus Sonication Chromatin IP kit (Cell Signaling Technology, #56383), following the manufacturer’s protocol. The cells were sonicated 10 times for 10 s at 20% of maximal power (Fisher Sonic Dismembrator) and then treated according to the protocol. Anti-AR (Cat. No. 5153), anti-H3K4me3 (Cat. No. 9751), anti-H3K9me3 (Cat. No. 13969), anti-H3K9ace (Cat. No. 9649), anti-H3K27ace (Cat. No. 8173) or rabbit IgG (Cat. No. 3900) of Cell Signaling Technology antibody were used to precipitate chromatin fragments from cell extracts. We used real-time quantitative PCR (SYBR green) to amplify the DNA fragment in the antibody precipitated DNA and the unprecipitated input DNA to calculate ΔCT values. A specific primer pair was used to amplify 134 bp of the ARE-containing cyclin D1 promoter fragment. For the histone modification antibody, another four pairs of prime locating at 1000 to −2000 bp region from the transcription initiation site of CCND1 were used besides the prime containing ARE. The RQ values (RQ = 2^–ΔCT) are presented and reflect the precipitated DNA as a percentage of the input DNA.

SMILES	influence on the cell cycle (G1/G0 increase, S-phase decrease) (MCF-7 cells)	AR binding to ARE site of CCND1-promoter [1]	H3K4me3 at CCND1 promoter, relative to untreated control cells [1] [%]	H3K9ac at CCND1 promoter [1]	H3K9me3 at CCND1 promoter [1]	H3K27ac at CCND1 promoter [1]
C[C@]12CCC(=O)C[C@@H]1CC[C@@H]1[C@@H]2CC[C@]2(C)[C@@H](O)CC[C@@H]12 [DHT, dihydrotestosterone]	most significant influence on the cell cycle	strong increase	–	–	–	–
C[C@]12CC[C@H]3[C@@H](CCC4=C(O)C(=O)CC[C@@]43C)[C@@H]1CC[C@@H]2O [4-OHT, 4-hydroxytestosterone]	most effective of the tested compunds	almost as strong as that of DHT	< 20	decreased	increased	unchanged
C=C1C[C@H]2[C@@H]3CC[C@H](O)[C@@]3(C)CC[C@@H]2[C@@]2(C)C=CC(=O)C=C12 [17-HEXE, 17-hydroexemestane]	–	almost as strong as that of DHT	< 20	decreased	increased	unchanged
